According to PubChem BioAssay (NCI):
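In this assay, cells in 96-well plates receive the compound at five concentrations for 48 hours. Endpoints are linearly interpolated between the surrounding concentrations. GI50 marks 50% less growth. TGI denotes the concentration required for complete inhibition of growth.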

Legend:
Assay in all cases: NCI tumour cell line growth inhibition, 48 h
[1] = tested on: UACC-257 melanoma
[2] = tested on: NCI-H226 lung
[3] = tested on: SF-295 CNS
[4] = tested on: HCC-2998 colon
[5] = tested on: SW-620 colon
[6] = tested on: SNB-75 CNS
[7] = tested on: OVCAR-4 ovarian
[8] = tested on: BT-549 breast
[9] = tested on: ACHN renal
[10] = tested on: IGROV1 ovarian
[11] = tested on: A549 NSCLC
[12] = tested on: SK-MEL-5 melanoma
[13] = tested on: OVCAR-3 ovarian
[14] = tested on: MCF7 breast
[15] = tested on: KM12 colon
[16] = tested on: SNB-19 CNS
[17] = tested on: U251 CNS
[18] = tested on: NCI/ADR-RES ovarian
[19] = tested on: HOP-62 NSCLC
[20] = tested on: MALME-3M melanoma
[21] = tested on: CCRF-CEM leukemia
[22] = tested on: OVCAR-5 ovarian
[23] = tested on: T-47D breast
[24] = tested on: HCT-15 colon
[25] = tested on: SF-268 CNS
[26] = tested on: EKVX NSCLC
[27] = tested on: COLO 205 colon
[28] = tested on: MDA-MB-231 breast
[29] = tested on: K-562 leukemia
[30] = tested on: HT29 colon
[31] = tested on: HS 578T breast
[32] = tested on: UACC-62 melanoma
[33] = tested on: MOLT-4 leukemia
[34] = tested on: MDA-MB-435
[35] = tested on: OVCAR-8 ovarian
[36] = tested on: NCI-H460 lung
[37] = tested on: NCI-H23 lung
[38] = tested on: SN12C renal
[39] = tested on: TK-10 renal
[40] = tested on: SK-MEL-28 melanoma
[41] = tested on: RXF 393 renal
[42] = tested on: HL-60(TB) leukemia
[43] = tested on: M14 melanoma
[44] = tested on: UO-31 renal
[45] = tested on: RPMI-8226 leukemia
[46] = tested on: SK-OV-3 ovarian
[47] = tested on: SK-MEL-2 melanoma
[48] = tested on: LOX IMVI melanoma
[49] = tested on: A498 renal
[50] = tested on: PC-3 prostate
[51] = tested on: SF-539 CNS
[52] = tested on: CAKI-1 renal
[53] = tested on: 786-0 renal
[54] = tested on: HCT-116 colon
[55] = tested on: DU-145 prostate
[56] = tested on: HOP-92 NSCLC
[57] = tested on: SR leukemia
[58] = tested on: NCI-H522 lung

C=C1SC(=Nc2ccccc2Cl)N(C(=O)c2sc3ccccc3c2Cl)C12CCCCC2
GI50 [1]: 23.6 µM | TGI [1]: > 100 µM | GI50 [2]: 40 µM | TGI [2]: > 100 µM | GI50 [3]: 2310 nM | TGI [3]: 23 µM | GI50 [4]: 7.27 µM | TGI [4]: > 100 µM | GI50 [5]: 5.87 µM | TGI [5]: > 100 µM | GI50 [6]: 14 µM | TGI [6]: > 100 µM | GI50 [7]: 7.75 µM | TGI [7]: > 100 µM | GI50 [8]: 70.4 µM | TGI [8]: > 100 µM | GI50 [9]: 4.89 µM | TGI [9]: > 100 µM | GI50 [10]: 9.66 µM | TGI [10]: > 100 µM | GI50 [11]: 4.31 µM | TGI [11]: > 100 µM | GI50 [12]: 8.2 µM | TGI [12]: > 100 µM | GI50 [13]: 6.56 µM | TGI [13]: 93.4 µM | GI50 [14]: 3.95 µM | TGI [14]: > 100 µM | GI50 [15]: 4.73 µM | TGI [15]: > 100 µM | GI50 [16]: 7.56 µM | TGI [16]: > 100 µM | GI50 [17]: 4.42 µM | TGI [17]: > 100 µM | GI50 [18]: 3.51 µM | TGI [18]: > 100 µM | GI50 [19]: 9.08 µM | TGI [19]: > 100 µM | GI50 [20]: 29.2 µM | TGI [20]: > 100 µM | GI50 [21]: 5.41 µM | TGI [21]: > 100 µM | GI50 [22]: 35.9 µM | TGI [22]: > 100 µM | GI50 [23]: 3.35 µM | TGI [23]: > 100 µM | GI50 [24]: 5.45 µM | TGI [24]: > 100 µM | GI50 [25]: 11.7 µM | TGI [25]: > 100 µM | GI50 [26]: 3.2 µM | TGI [26]: > 100 µM | GI50 [27]: 8.5 µM | TGI [27]: 22.4 µM | GI50 [28]: 4.9 µM | TGI [28]: > 100 µM | GI50 [29]: 4.14 µM | TGI [29]: > 100 µM | GI50 [30]: 6.71 µM | TGI [30]: > 100 µM | GI50 [31]: 4.84 µM | TGI [31]: > 100 µM | GI50 [32]: 22.8 µM | TGI [32]: > 100 µM | GI50 [33]: 4.72 µM | TGI [33]: > 100 µM | GI50 [34]: 29.8 µM | TGI [34]: > 100 µM | GI50 [35]: 6.62 µM | TGI [35]: > 100 µM | GI50 [36]: 4.71 µM | TGI [36]: > 100 µM | GI50 [37]: 4.43 µM | TGI [37]: > 100 µM | GI50 [38]: 6.99 µM | TGI [38]: > 100 µM | GI50 [39]: 15.2 µM | TGI [39]: > 100 µM | GI50 [40]: > 100 µM | TGI [40]: > 100 µM | GI50 [41]: 15.2 µM | TGI [41]: 88.7 µM | GI50 [42]: 6.63 µM | TGI [42]: 89.3 µM | GI50 [43]: 45.1 µM | TGI [43]: > 100 µM | GI50 [44]: 2330 nM | TGI [44]: > 100 µM | GI50 [45]: 3.81 µM | TGI [45]: 98.2 µM | GI50 [46]: 13.9 µM | TGI [46]: > 100 µM | GI50 [47]: 15.8 µM | TGI [47]: 58.8 µM | GI50 [48]: 21.8 µM | TGI [48]: > 100 µM | GI50 [49]: 2770 nM | TGI [49]: 74.6 µM | GI50 [50]: 4.51 µM | TGI [50]: > 100 µM | GI50 [51]: 34.9 µM | TGI [51]: > 100 µM | GI50 [52]: 3.05 µM | TGI [52]: > 100 µM | GI50 [53]: 37.9 µM | TGI [53]: > 100 µM | GI50 [54]: 7.61 µM | TGI [54]: > 100 µM | GI50 [55]: 6.2 µM | TGI [55]: > 100 µM | GI50 [56]: 2010 nM | TGI [56]: 9.31 µM | GI50 [57]: 8.54 µM | TGI [57]: > 100 µM | GI50 [58]: 4.23 µM | TGI [58]: > 100 µM
